# Measured values as given in PubChem BioAssay AID2060900 (Molecular Pharmacology Branch, DTP, NCI, 2025).
# System: 521955-158-R2-J5-PDC complex spheroids, viability
# Assay: Anticancer human tumor 521955-158-R2-J5-PDC patient-derived pancreatic carcinoma cell line growth inhibition [RAS]
# Details: for IC50: curve of first compound; for viability, T/C: stronger effect = lower value
# Excerpt: RAS pathway inhibitors in Combinations in Complex Spheroids
# A high-throughput screen of multi-cell type tumor spheroids was designed to identify active combinations of RAS pathway inhibitors and targeted small molecules. Complex spheroids include a stromal component modeled by human endothelial cells (HUVEC) and fibroblasts modeled by human mesenchymal stem cells (MSCs). The concentration ranges selected for each drug and investigational agent were based upon clinically achievable concentrations if the clinical Cmax of the agent was known.
# Compounds. The drugs and investigational agents: abemaciclib (NSC768073), cobimetinib (NSC768068), divarasib (GDC6063, NSC841802), docetaxel (NSC628503), GDC-1971 (RLY-1971, NSC841576), gemcitabine (NSC613327), inavolisib (NSC800729), ipatasertib (NSC767898), KB-0742 (NSC834161), MRTX-1133 (NSC836407), osimertinib (NSC779217), RMC-4630 (NSC839698), RMC-6236 (NSC851965), RMC-6291 (NSC852671), Ro-3306 (NSC812927), sapanisertib (NSC764658), SN-38 (NSC673596), staurosporine (NSC755774), SY5609 (NSC837396), and tovorafenib (DAY101, NSC766906), were obtained from the National Cancer Institute (NCI) Developmental Therapeutics Program Chemical Repository. The FDA-approved anticancer drug set is available from the NCI Developmental Therapeutics Program. […] The stock solutions were prepared in dimethyl sulfoxide (DMSO, Sigma-Aldrich, St. Louis, MO, cat. D2650) at 800-fold the tested concentration and stored at -70 degrees C prior to their use. All drugs and investigational agents were tested over a range starting from a high concentration at or near the clinical Cmax and decreasing in half-log increments. If the clinical Cmax for an agent had not been determined, the highest concentration tested was 10 microM.
# Cell Culture. All cells were maintained in an incubator at 37 degrees C and 5% CO2 with 95% humidity. The PDC lines were cultured according to standard operating procedures established by the NCI PDMR. All PDCs were thawed and cultured in Matrigel-coated flasks prepared with a working solution of 1X Ham's F-12 nutrient mix, without supplementation (Invitrogen, Waltham, MA, cat. 11765054), 100 U/mL penicillin-streptomycin (Invitrogen, cat. 15140122), and 2.5% Matrigel (Corning Inc., Corning, NY, cat. 354248) for the first three passages. The 362531-283-R-J2-PDC and 782815-120-R-J1-PDC lines were cultured in 6C/Colon 1B media, which includes advanced DMEM/F-12 (Thermo Fisher Scientific, cat. 12634028), 10 mM HEPES (Thermo Fisher Scientific, cat. 15630080), 1X GlutaMAX supplement (Thermo Fisher Scientific, cat. 35050061), 0.1 mg/mL primocin (InvivoGen, San Diego, CA, cat. ant-pm-2), 10% defined fetal bovine serum, heat inactivated (HyClone Laboratories Inc., Logan, UT, cat. SH30070.03HI), 50% L-WRN conditioned media (ATCC, cat. CRL-3276), 1.25 mM N-Acetyl-L-cysteine (Sigma-Aldrich, cat. A9165), 10 mM nicotinamide (Sigma-Aldrich, cat. N0636), 1X B-27 supplement (Thermo Fisher Scientific, cat. 17504044), 1X N-2 supplement (Thermo Fisher Scientific, cat. 17502048), 50 ng/mL human EGF (Thermo Fisher Scientific, cat. PHG0311), and 10 microM Y-27632 dihydrochloride (Tocris Bioscience, cat. 1254). The K12877-001-R-J1-PDC line was cultured in 6I media, which includes all 6C/Colon 1B media plus 10 ng/mL human FGF-10 (PeproTech, cat. 100-26), 1 ng/mL human FGF-2 (PeproTech, cat. 100-18B), 1 µM prostaglandin E2 (Tocris Bioscience, cat. 2296), […] hydrocortisone (Sigma-Aldrich, cat. H4001), and […] bovine insulin (Sigma-Aldrich, cat. I6634). The K86415-001-R-J1-PDC line was cultured in 6D media, which includes all 6C/Colon 1B media components minus the L-WRN conditioned media. The 485176-168-R4-J1-PDC was cultured in PANC media, which includes all 6C/Colon 1B media plus 100 ng/mL human FGF-10 (PeproTech, cat. 100-26), 500 nM SB-431542 (Selleckchem, cat. S1067), and 10 nM gastrin (Tocris Bioscience, cat. 3006). […]
# 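Note: compound exposure lasted seven days before the viability read.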
# 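Throughout, for viability, T/C: spheroids also contain HUVEC endothelial cells and mesenchymal stem cells as stroma.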
compound,measurement,setting,value
CC(C)n1nc(-c2ccc3oc(N)nc3c2)c2c(N)ncnc21 + C#Cc1c(F)ccc2cc(O)cc(-c3ncc4c(N5CC6CCC(C5)N6)nc(OCC56CCCN5CC(F)C6)nc4c3F)c12,IC50,second compound 0.0316 µM,1.97 nM
same,IC50,second compound 0.1 µM,1.08 nM
same,IC50,second compound 0.316 µM,< 0.316 nM
same,IC50,second compound 1 µM,< 0.316 nM
same,IC50,second compound 3.16 µM,< 0.316 nM
same,IC50,second compound 10 µM,< 0.316 nM
same,"viability, T/C","second compound 0.0316 µM, first compound 0.000316 µM",83.6%
same,"viability, T/C","second compound 0.0316 µM, first compound 0.001 µM",58.1%
same,"viability, T/C","second compound 0.0316 µM, first compound 0.00316 µM",46.7%
same,"viability, T/C","second compound 0.0316 µM, first compound 0.01 µM",27.2%
same,"viability, T/C","second compound 0.0316 µM, first compound 0.0316 µM",20.3%
same,"viability, T/C","second compound 0.0316 µM, first compound 0.1 µM",16.5%
same,"viability, T/C","second compound 0.1 µM, first compound 0.000316 µM",51.2%
same,"viability, T/C","second compound 0.1 µM, first compound 0.001 µM",51.9%
same,"viability, T/C","second compound 0.1 µM, first compound 0.00316 µM",40.8%
same,"viability, T/C","second compound 0.1 µM, first compound 0.01 µM",22.4%
same,"viability, T/C","second compound 0.1 µM, first compound 0.0316 µM",12.6%
same,"viability, T/C","second compound 0.1 µM, first compound 0.1 µM",12.4%
same,"viability, T/C","second compound 0.316 µM, first compound 0.000316 µM",42.1%
same,"viability, T/C","second compound 0.316 µM, first compound 0.001 µM",56.1%
same,"viability, T/C","second compound 0.316 µM, first compound 0.00316 µM",40.2%
same,"viability, T/C","second compound 0.316 µM, first compound 0.01 µM",24.4%
same,"viability, T/C","second compound 0.316 µM, first compound 0.0316 µM",13.6%
same,"viability, T/C","second compound 0.316 µM, first compound 0.1 µM",8.05%
same,"viability, T/C","second compound 1 µM, first compound 0.000316 µM",49.6%
same,"viability, T/C","second compound 1 µM, first compound 0.001 µM",45.1%
same,"viability, T/C","second compound 1 µM, first compound 0.00316 µM",40.4%
same,"viability, T/C","second compound 1 µM, first compound 0.01 µM",22.1%
same,"viability, T/C","second compound 1 µM, first compound 0.0316 µM",13.7%
same,"viability, T/C","second compound 1 µM, first compound 0.1 µM",8.36%
same,"viability, T/C","second compound 3.16 µM, first compound 0.000316 µM",42.6%
same,"viability, T/C","second compound 3.16 µM, first compound 0.001 µM",44.6%
same,"viability, T/C","second compound 3.16 µM, first compound 0.00316 µM",33.2%
same,"viability, T/C","second compound 3.16 µM, first compound 0.01 µM",21.3%
same,"viability, T/C","second compound 3.16 µM, first compound 0.0316 µM",11%
same,"viability, T/C","second compound 3.16 µM, first compound 0.1 µM",7.2%
same,"viability, T/C","second compound 10 µM, first compound 0.000316 µM",38.9%
same,"viability, T/C","second compound 10 µM, first compound 0.001 µM",33.8%
same,"viability, T/C","second compound 10 µM, first compound 0.00316 µM",21.3%
same,"viability, T/C","second compound 10 µM, first compound 0.01 µM",17%
same,"viability, T/C","second compound 10 µM, first compound 0.0316 µM",10.4%
same,"viability, T/C","second compound 10 µM, first compound 0.1 µM",7.51%
